Experimental data from patent publication US20200147039A1, “COMPOUNDS USEFUL IN INHIBITING HUMAN TREFOIL FACTOR 3” (NATIONAL UNIVERSITY OF SINGAPORE, priority 2017, published 2020).

The compounds below were run on MCF-7 (assay: AlamarBlue cell viability assay, MCF7). Conditions: Homo sapiens, MCF7, MCF-7, AlamarBlue cell viability (Table 8).
Type: cell-based, human
Source text: (A) Inhibitory concentration 50% (IC50) values for compound 43 in the MC cell lines are tabulated, using an AlamarBlue™ cell viability assay as previously described in Pandey V et al., Breast Cancer Res. 2014; 16(5):429. (B) Measured dose-dependent manner effect of compound 43 on the viability of MC cells (left-side, TFF3-high and right, TFF3-low) using AlamarBlue™ viability assay as previously described (ibid). (C) Apoptotic cell death of mammary carcinoma cell lines measured after treatment with 10 μM compound 43 using flow cytometry analysis at 24 hour as described previously in Keerthy H K et al., PloS one. 2014; 9(9):e107118. Annexin V-FITC staining is indicated on the X-axis and PI staining on the Y-axis. […] Acquisition of Annexin V and PI data were represented as percentage (%) in each quadrant. Note: CM, conditioned media; MCF10A and MCF12A, non-transformed immortalized-mammary epithelial cell line. Points are mean of triplicate experiments; bars, ±SD. Statistical significance was assessed by using an unpaired two-tailed Student's t test (P<0.05 was considered as significant) using GraphPad Prism5. Columns are mean of triplicate experiments; bars, ±SD. **P<0.001, *P<0.05.
The human immortalized mammary epithelial cell lines, MCF10A, and MCF12A; and immortalized hepatocellular epithelial cell line, LO2 were obtained from the American Type Culture Collection (ATCC, Rockville, Md.) and were cultured as per ATCC propagation instructions. MC cell lines, MCF7, T47D, BT474, BT20, MDA-MB-361, MDA-MB-436, MDA-MB-468, and MDA-MB-231; endometrial carcinoma cell lines, Ishikawa, ECC1, RL95-2 and AN3; hepatocellular carcinoma cell lines, Hep3B, H2P, and H2M; colon carcinoma cell lines, DLD-1, and Caco-2; and prostate carcinoma cell lines, PC3, LNCaP, and DU145 were obtained from the American Type Culture Collection (ATCC, Rockville, Md.). Pancreatic carcinoma cell lines, AsPC-1 and BxPC-3; Lung carcinoma cell lines, HCC-827, NCI-H1975, HCC-4006, PC-14, and NCI-H1299; and Thyroid carcinoma cell lines HTH83, CAL62, T238, and OGK-M were obtained from Prof. H. Phillip Koeffler's laboratory at The Cancer Science Institute of Singapore, National University of Singapore (NUS). Gastric carcinoma cell lines, AGS, MKN-28, MKN-45, and A2-528 were obtained from Prof. Yoshiaki Ito's laboratory at The Cancer Science Institute of Singapore, NUS. All cell lines were cultured as per ATCC propagation instructions.
The above synthesised compounds were initially evaluated against a range of carcinoma cells using an AlamarBlue™ cell viability assay (using the protocol discussed above). The tested compounds were generally efficacious at reducing the viability of various carcinoma cells compared to vehicle (DMSO) treated cells. Table 8 provides selected IC50 data for certain of the compounds synthesised herein against MCF-7.
In table 9 IC50 values of compound 43 compound library in several cancer cell lines are tabulated, using an AlamarBlue® cell viability assay as previously described in Pandey V et al., Breast Cancer Res. 2014; 16(5):429. Statistical analysis was assessed by using GraphPad Prism5. Note: NV, no value.

SMILES | IC50 [µM]
COc1ccc2c3c(c(=O)oc2c1)C(c1ccc(-c2ccc(C)nc2)cc1)C(C#N)=C(N)O3 (stereo not drawn) [Compound 153] | 4.9
COc1ccc2c3c(c(=O)oc2c1)C(c1ccc(-c2ccc(Cl)cc2)cc1)C(C#N)=C(N)O3 (stereo not drawn) [Compound 154] | 5.74
N#CC1=C(N)Oc2c(c(=O)oc3ccc(F)cc23)C1c1ccc(-c2ccc(Cl)cc2)cc1 (stereo not drawn) [Compound 155] | 36.1
N#CC1=C(N)Oc2c(c(=O)oc3ccc(F)cc23)C1c1ccc(-c2cccc3ccccc23)cc1 (stereo not drawn) [Compound 156] | 24.8
CC(=O)c1ccc(-c2ccc(C3C(C#N)=C(N)Oc4c3c(=O)oc3ccc(F)cc43)cc2)s1 (stereo not drawn) [Compound 158] | 95.2
N#CC1=C(N)Oc2c(c(=O)oc3ccc(F)cc23)C1c1ccc(-c2cncnc2)cc1 (stereo not drawn) [Compound 160] | 253
Cc1ccccc1-c1ccc(C2C(C#N)=C(N)Oc3c2c(=O)oc2ccc(F)cc32)cc1 (stereo not drawn) [Compound 162] | 164
COc1ccc2c3c(c(=O)oc2c1)C(c1ccc(-c2ccccc2C)cc1)C(C#N)=C(N)O3 (stereo not drawn) [Compound 163] | 22.8
COc1cccc(-c2ccc(C3C(C#N)=C(N)Oc4c3c(=O)oc3ccc(F)cc43)cc2)c1 (stereo not drawn) [Compound 164] | 27.3
N#CC1=C(N)Oc2c(c(=O)oc3ccc(F)cc23)C1c1ccc(-c2cccnc2)cc1F (stereo not drawn) [Compound 166] | 53.8
N#CC1=C(N)Oc2c(c(=O)oc3ccc(F)cc23)C1c1ccc(-c2cncnc2)cc1F (stereo not drawn) [Compound 168] | 251
Cc1cc(-c2ccc(C3C(C#N)=C(N)Oc4c3c(=O)oc3ccc(F)cc43)c(F)c2)cnc1Cl (stereo not drawn) [Compound 170] | 27.3
